Source: patent US20020091262A1, “Substituted aryl or heteroarylamides having retinoid-like biological activity” (Allergan, priority 1995, published 2002)

Legend:
RXRα = biological target: T1, RXRα (Homo sapiens, UniProt P19793); assay: Ligand binding assay, RXRα; conditions: receptor expressed in Baculovirus; Cheng-Prussof from IC50
T1 construct: made in house; used as extract protein
T1 sequence (P19793 1-462): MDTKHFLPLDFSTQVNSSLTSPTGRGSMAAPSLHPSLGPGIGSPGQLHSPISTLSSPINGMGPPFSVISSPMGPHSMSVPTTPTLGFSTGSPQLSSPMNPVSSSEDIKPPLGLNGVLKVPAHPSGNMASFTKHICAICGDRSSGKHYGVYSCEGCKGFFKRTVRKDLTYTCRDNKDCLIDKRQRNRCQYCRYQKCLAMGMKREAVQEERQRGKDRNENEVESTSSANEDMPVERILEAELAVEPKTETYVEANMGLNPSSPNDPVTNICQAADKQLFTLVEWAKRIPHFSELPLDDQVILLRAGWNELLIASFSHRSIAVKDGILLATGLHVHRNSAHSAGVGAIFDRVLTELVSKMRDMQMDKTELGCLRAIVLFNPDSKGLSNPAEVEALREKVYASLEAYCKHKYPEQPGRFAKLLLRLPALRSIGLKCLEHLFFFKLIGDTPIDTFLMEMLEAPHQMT
Procedure: (§1) A holoreceptor transactivation assay and a ligand binding assay which measure the ability of the compounds of the invention to bind to the several retinoid receptor subtypes, respectively, are described in published PCT Application No. WO W093/11755 (particularly on pages 30-33 and 37-41) published on Jun. 24, 1993, the specification of which is also incorporated herein by reference. A description of the ligand binding assay is also provided below.
(§2) All binding assays were performed in a similar fashion. All six receptor types were derived from the expressed receptor type (RAR α, β, Γ and RXR α, β, Γ) expressed in Baculovirus. Stock solutions of all compounds were prepared as 10 mM ethanol solutions and serial dilutions carried out into 1:1 DMSO; ethanol. Assay buffers consisted of the following for all six receptor assays: 8% glycerol, 120 mM KCl, 8 mM Tris, 5 mM CHAPS 4 mM DTT and 0.24 mM PMSF, pH-7.4@room temperature.
(§3) All receptor biding assays were performed in the same manner. The final assay volume was 250 μl and contained from 10-40 μg of extract protein depending on receptor being assayed along with 5 nM of [^3H] all-trans retinoic acid or 10 nM [^3H] 9-cis retinoic acid and varying concentrations of competing ligand at concentrations that ranged from 0-10^−5 M. The assays were formatted for a 96 well minitube system. Incubations were carried out at 4° C. until equilibrium was achieved. Non-specific binding was defined as that binding remaining in the presence of 1000 nM of the appropriate unlabeled retinoic acid isomer. At the end of the incubation period, 50 μl of 6.25% hydroxyapitite was added in the appropriate wash buffer. The wash buffer consisted of 100 mM KCl, 10 mM Tris and either 5 mM CHAPS (RXR α, β, Γ) or 0.5% Triton X-100 (RAR α, β, Γ). The mixture was vortexed and incubated for 10 minutes at 4° C., centrifuged and the supernatant removed. The hydroxyapitite was washed three more times with the appropriate wash buffer. The receptor-ligand complex was adsorbed by the hydroxyapitite. The amount of receptor-ligand complex was determined by liquid scintillation counting of hydroxyapitite pellet.
(§4) After correcting for non-specific binding, IC50 values were determined. […] The IC50 value was determined graphically from a loglogit plot of the data. The […] were determined by application of the Cheng-Prussof equation to the IC50 values, the labeled ligand concentration and the Kd of the labeled ligand.
(§5) The results of ligand binding assay are expressed in Kd numbers. (See Chena et al. Biochemical Pharmacology Vol. 22 pp 3099-3108, expressly incorporated herein by reference.)

RXRβ = biological target: T2, RXRβ (UniProt P28704); assay: Ligand binding assay, RXRβ; conditions: receptor expressed in Baculovirus; Cheng-Prussof from IC50
T2 construct: All six receptor types were derived from the expressed receptor type (RAR α, β, Γ and RXR α, β, Γ) expressed in Baculovirus
T2 sequence (P28704 1-520): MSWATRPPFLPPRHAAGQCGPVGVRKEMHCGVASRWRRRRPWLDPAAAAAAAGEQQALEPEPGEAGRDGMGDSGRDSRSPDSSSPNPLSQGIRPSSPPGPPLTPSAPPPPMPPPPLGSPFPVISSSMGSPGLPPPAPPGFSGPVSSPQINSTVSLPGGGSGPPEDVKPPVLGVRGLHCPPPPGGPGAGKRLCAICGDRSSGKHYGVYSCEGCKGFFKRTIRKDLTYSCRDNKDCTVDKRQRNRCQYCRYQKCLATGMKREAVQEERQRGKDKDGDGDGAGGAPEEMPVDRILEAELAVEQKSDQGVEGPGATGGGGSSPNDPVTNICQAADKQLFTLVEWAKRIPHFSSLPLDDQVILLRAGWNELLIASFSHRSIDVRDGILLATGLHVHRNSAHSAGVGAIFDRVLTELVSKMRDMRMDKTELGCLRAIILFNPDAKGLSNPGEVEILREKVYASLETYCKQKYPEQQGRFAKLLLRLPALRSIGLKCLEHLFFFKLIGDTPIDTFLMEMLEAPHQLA
Procedure: (§6) A description of the ligand binding assay is also provided below.
as §2
as §3, with “At the end of the incubation period, 50 μl of 6.25% hydroxyapitite was added in the appropriate wash buffer.” left out
as §4
(§7) The results of ligand binding assay are expressed in Kd numbers.

RXRΓ = biological target: T3, RXRΓ (UniProt P28705); assay: Ligand binding assay, RXRΓ; conditions: receptor expressed in Baculovirus; Cheng-Prussof from IC50
T3 construct: All six receptor types were derived from the expressed receptor type (RAR α, β, Γ and RXR α, β, Γ) expressed in Baculovirus
T3 sequence (P28705 1-463): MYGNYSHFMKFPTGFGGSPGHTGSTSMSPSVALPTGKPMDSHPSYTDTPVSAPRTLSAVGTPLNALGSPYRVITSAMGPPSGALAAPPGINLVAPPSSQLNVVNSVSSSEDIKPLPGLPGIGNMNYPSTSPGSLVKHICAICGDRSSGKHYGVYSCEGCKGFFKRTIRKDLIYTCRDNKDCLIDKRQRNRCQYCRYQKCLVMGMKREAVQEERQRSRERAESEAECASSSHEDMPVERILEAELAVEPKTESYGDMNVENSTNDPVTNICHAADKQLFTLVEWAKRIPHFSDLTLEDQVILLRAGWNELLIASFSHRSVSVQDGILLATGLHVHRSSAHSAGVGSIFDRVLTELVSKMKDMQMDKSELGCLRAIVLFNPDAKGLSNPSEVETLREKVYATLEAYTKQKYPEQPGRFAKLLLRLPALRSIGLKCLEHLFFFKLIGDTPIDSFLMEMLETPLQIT
Procedure: as §6, §2
as §3, with “At the end of the incubation period, 50 μl of 6.25% hydroxyapitite was added in the appropriate wash buffer.” left out
as §4, §7

RARα = biological target: T4, RARα (Homo sapiens, UniProt P10276); assay: Ligand binding assay, RARα; conditions: receptor expressed in Baculovirus; [3H] all-trans retinoic acid; Cheng-Prussof from IC50
T4 construct: made in house; used as extract protein
T4 sequence (P10276 1-462): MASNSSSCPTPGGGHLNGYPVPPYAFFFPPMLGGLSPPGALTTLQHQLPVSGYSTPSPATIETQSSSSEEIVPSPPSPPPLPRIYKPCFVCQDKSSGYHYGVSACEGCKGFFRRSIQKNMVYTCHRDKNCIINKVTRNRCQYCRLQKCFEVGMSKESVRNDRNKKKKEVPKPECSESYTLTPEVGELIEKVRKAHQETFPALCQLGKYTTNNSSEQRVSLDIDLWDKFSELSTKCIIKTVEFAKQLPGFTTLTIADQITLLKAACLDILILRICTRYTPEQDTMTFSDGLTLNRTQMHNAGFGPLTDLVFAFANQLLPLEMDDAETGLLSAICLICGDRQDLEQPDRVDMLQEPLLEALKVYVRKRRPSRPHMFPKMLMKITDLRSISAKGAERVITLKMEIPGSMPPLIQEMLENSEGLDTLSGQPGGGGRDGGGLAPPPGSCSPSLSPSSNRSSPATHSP
Procedure: as §1, §2, §3, §4, §5

RARβ = biological target: T5, RARβ (Homo sapiens, UniProt P10826); assay: Ligand binding assay, RARβ; conditions: receptor expressed in Baculovirus; Cheng-Prussof from IC50
T5 construct: made in house; used as extract protein
T5 sequence (P10826 1-455): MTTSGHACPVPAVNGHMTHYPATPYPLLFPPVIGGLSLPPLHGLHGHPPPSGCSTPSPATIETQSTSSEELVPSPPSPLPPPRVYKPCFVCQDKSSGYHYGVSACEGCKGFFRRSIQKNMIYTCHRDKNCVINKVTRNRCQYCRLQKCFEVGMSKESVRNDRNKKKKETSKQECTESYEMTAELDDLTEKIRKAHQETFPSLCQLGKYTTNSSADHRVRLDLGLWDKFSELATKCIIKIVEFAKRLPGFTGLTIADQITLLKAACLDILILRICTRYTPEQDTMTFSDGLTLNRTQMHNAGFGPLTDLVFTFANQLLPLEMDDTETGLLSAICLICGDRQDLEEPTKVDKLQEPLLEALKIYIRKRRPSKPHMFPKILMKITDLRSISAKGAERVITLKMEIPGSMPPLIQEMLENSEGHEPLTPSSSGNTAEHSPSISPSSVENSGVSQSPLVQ
Procedure: as §1, §2
as §3, with “The wash buffer consisted of 100 mM KCl, 10 mM Tris and either 5 mM CHAPS (RXR α, β, Γ) or 0.5% Triton X-100 (RAR α, β, Γ). The mixture was vortexed and incubated for 10 minutes at 4° C., centrifuged and the supernatant removed. The hydroxyapitite was washed three more times with the appropriate wash buffer. The receptor-ligand complex was adsorbed by the hydroxyapitite.” left out
as §4, with “ligand. […]” for “ligand.”

RARΓ = biological target: T6, RARΓ (Homo sapiens, UniProt P13631); assay: Ligand binding assay, RARΓ; conditions: receptor expressed in Baculovirus; Cheng-Prussof from IC50
T6 construct: made in house; used as extract protein
T6 sequence (P13631 1-454): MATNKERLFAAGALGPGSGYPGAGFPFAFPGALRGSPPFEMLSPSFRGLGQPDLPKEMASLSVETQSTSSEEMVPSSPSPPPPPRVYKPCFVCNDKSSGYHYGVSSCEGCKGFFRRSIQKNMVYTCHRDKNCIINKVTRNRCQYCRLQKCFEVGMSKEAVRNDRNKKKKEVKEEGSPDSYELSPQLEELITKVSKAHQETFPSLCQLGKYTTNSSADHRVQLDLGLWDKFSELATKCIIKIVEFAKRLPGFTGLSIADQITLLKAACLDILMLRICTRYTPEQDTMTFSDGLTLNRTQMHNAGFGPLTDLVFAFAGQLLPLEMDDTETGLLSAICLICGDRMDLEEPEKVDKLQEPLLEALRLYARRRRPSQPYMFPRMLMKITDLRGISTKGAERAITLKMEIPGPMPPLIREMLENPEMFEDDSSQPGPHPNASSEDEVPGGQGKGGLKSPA
Procedure: as §1, §2
as §3, with “The wash buffer consisted of 100 mM KCl, 10 mM Tris and either 5 mM CHAPS (RXR α, β, Γ) or 0.5% Triton X-100 (RAR α, β, Γ). The mixture was vortexed and incubated for 10 minutes at 4° C., centrifuged and the supernatant removed. The hydroxyapitite was washed three more times with the appropriate wash buffer. The receptor-ligand complex was adsorbed by the hydroxyapitite.” left out
as §4, with “ligand. […]” for “ligand.”

Row | Kd (RXRα) [nM] | Kd (RXRβ) [nM] | Kd (RXRΓ) [nM] | Kd (RARα) [nM] | Kd (RARβ) [nM] | Kd (RARΓ) [nM] | Molecule
1 | > 1000 | > 1000 | > 1000 | 19 | > 1000 | > 1000 | CC(C)(C)c1cc(C(=O)Nc2ccc(C(=O)O)cc2)cc(C(C)(C)C)n1 [Compound 4]
2 | > 1000 | > 1000 | > 1000 | 77 | > 1000 | > 1000 | CC(C)(C)c1cc(C(=O)Nc2ccc(C(=O)O)c(F)c2)c(O)c(C(C)(C)C)c1 [Compound 8]
3 |  | > 1000 | > 1000 | 62 |  |  | CC(C)(C)c1cc(C(=O)Nc2cc(F)c(C(=O)O)c(F)c2)cc(C(C)(C)C)n1 [Compound 10]
4 |  | > 1000 | > 1000 | 87 |  |  | CC(C)(C)c1cc(C(=O)Nc2cc(F)c(C(=O)O)c(F)c2)cc(C(C)(C)C)c1 [Compound 12]
5 |  | > 1000 | > 1000 | 94 |  |  | CC(C)(C)c1cc(C(=O)Nc2ccc(C(=O)O)c([N+](=O)[O-])c2)cc(C(C)(C)C)n1 [Compound 14]
6 | > 1000 | > 1000 | > 1000 | 37 | > 1000 | > 1000 | CC(C)(C)c1cc(C(=O)Nc2ccc(C(=O)O)cc2)cc(C(C)(C)C)c1 [Compound 15, reference compound]

Row | Molecule | Kd (RXRα) [nM] | Kd (RXRβ) [nM] | Kd (RXRΓ) [nM] | Kd (RARα) [nM] | Kd (RARβ) [nM] | Kd (RARΓ) [nM]
7 | 2-Fluoro-4-[(3′,5′-di-t-butyl)phenylcarbamoyl]benzoic Acid [Compound 6] | > 1000 | > 1000 | > 1000 |  |  | 
